Data taken from US10040798B2, “Pyrrolopyridazine inhibitors of IRAK4 activity” (MERCK SHARP & DOHME CORP., priority 2015, dated 2018).
Counter-ions that a name gives are not always drawn.

These compounds were tested against IRAK4 (Homo sapiens (Human), UniProt Q9NWZ3) (assay: IRAK4 Kinase Assay (IMAP fluorescence polarization)). Details: 0.5 nM GST tagged IRAK4, 100 μM ATP, 30 minutes at 25° C., IMAP FP.
Format: biochemical
Experimental: The kinase activity of IRAK4 is determined by its ability to catalyze the phosphorylation of a fluorescent polypeptide substrate. The extent of phosphorylation is measured using the IMAP technology (Molecular Devices) where the phosphorylated fluorescent substrate binds to the large M (III)-based nanoparticles which reduces the rotational speed of the substrate and thus increases its fluorescent polarization (FP).
20 μL reaction mixture contains 10 mM TriHCl, pH 7.2, 0.5 nM GST tagged IRAK4 (SignalChem), 100 nM fluorescent peptide substrate (RP7030, Molecular Devices), 100 μM ATP, 1 mM DDT, 1 mM MgCl2, and 0.01% Tween 20. The reaction is initiated by the addition of ATP. After incubation for 30 minutes at 25° C., 60 μL of Progressive IMAP Reagent (Molecular Devices) is added to stop the reaction. Change in RP7030's FP is determined by a FP reader (Analyst HT, LJL BioSystems).

Sequence of IRAK4 (Q9NWZ3 whole entry): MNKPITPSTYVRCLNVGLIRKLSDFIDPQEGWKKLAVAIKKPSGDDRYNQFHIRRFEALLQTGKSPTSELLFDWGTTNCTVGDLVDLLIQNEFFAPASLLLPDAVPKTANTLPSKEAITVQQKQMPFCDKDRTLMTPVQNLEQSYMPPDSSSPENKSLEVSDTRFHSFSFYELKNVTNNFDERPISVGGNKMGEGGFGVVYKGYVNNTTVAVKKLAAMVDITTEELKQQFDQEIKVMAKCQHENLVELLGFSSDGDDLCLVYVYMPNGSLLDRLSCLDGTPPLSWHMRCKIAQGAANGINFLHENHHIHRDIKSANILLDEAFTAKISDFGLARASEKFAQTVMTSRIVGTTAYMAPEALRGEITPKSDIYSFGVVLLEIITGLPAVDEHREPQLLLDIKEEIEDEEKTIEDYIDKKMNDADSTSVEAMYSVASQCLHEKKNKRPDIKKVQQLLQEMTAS

| Structure (SMILES) | IC50 [nM] |
| --- | --- |
| O=C(Nc1cscc1Cl)c1ccc2ccc(N3CCCNCC3)nn12 [Example 82, N-(4-chlorothiophen-3-yl)-2-(1,4-diazepan-1-yl)pyrrolo[1,2-b]pyridazine-7-carboxamide trifluoroacetate] | 308 |
| O=C(Nc1ccsc1Br)c1ccc2ccc(N3C[C@H]4CC[C@@H]3CN4)nn12 (single isomer, unassigned) [Example 79, N-(2-bromothiophen-3-yl)-2-[(1S,4S)- or (1R,4R)-2,5-diazabicyclo[2.2.2]oct-2-yl]pyrrolo[1,2-b]pyridazine-7-carboxamide trifluoroacetate] | 192 |
| O=C(Nc1ccccc1C(F)(F)F)c1ccc2ccc(N3CCCNCC3)nn12 [Example 111, 2-(1,4-Diazepan-1-yl)-N-(2-(trifluoromethyl)phenyl)pyrrolo[1,2-b]pyridazine-7-carboxamide] | 1420 |
| Cn1cc(NC(=O)c2ccc3ccc(N4C[C@@H]5CN[C@@H](C5)C4)nn23)c(C(F)(F)F)n1 (single isomer, unassigned) [Example 3, 2-[(1S,5S)- or (1R,5R)-3,6-diazabicyclo[3.2.1]oct-3-yl]-N-[1-methyl-3-(trifluoromethyl)-1H-pyrazol-4-yl]pyrrolo[1,2-b]pyridazine-7-carboxamide] | 85 |
| Cn1cc(NC(=O)c2ccc3ccc(N4CC5CCC(C4)N5)nn23)c(C(F)(F)F)n1 [Example 47, 2-(3,8-diazabicyclo[3.2.1]oct-3-yl)-N-[1-methyl-3-(trifluoromethyl)-1H-pyrazol-4-yl]pyrrolo[1,2-b]pyridazine-7-carboxamide trifluoroacetate] | 9 |
| CC(C)n1cc(NC(=O)c2ccc3ccc(N[C@@H]4CCCC[C@@H]4O)nn23)c(C(F)F)n1 [Example 55, N-[3-(difluoromethyl)-1-(1-methylethyl)-1H-pyrazol-4-yl]-2-{[(1R,2S)-2-hydroxycyclohexyl]amino}pyrrolo[1,2-b]pyridazine-7-carboxamide trifluoroacetate] | 53 |
| O=C(Nc1ccsc1Cl)c1ccc2ccc(N3CC4CCC3CN4)nn12 (stereo not shown) [Example 70, N-(2-chlorothiophen-3-yl)-2-(2,5-diazabicyclo[2.2.2]oct-2-yl)pyrrolo[1,2-b]pyridazine-7-carboxamide trifluoroacetate] | 433 |
| N#Cc1sccc1NC(=O)c1ccc2ccc(N3C[C@@H]4CC[C@H]3CN4)nn12 (single isomer, unassigned) [Example 80, N-(2-cyanothiophen-3-yl)-2-[(1S,4S)- or (1R,4R)-2,5-diazabicyclo[2.2.2]oct-2-yl]pyrrolo[1,2-b]pyridazine-7-carboxamide formate] | 103 |
| N#Cc1ccccc1NC(=O)c1ccc2ccc(N3CCCNCC3)nn12 [Example 100, N-(2-Cyanophenyl)-2-(1,4-diazepan-1-yl)pyrrolo[1,2-b]pyridazine-7-carboxamide] | 866 |
| Cn1cc(NC(=O)c2ccc3ccc(N4CCCNCC4)nn23)c(Br)n1 [Example 21, N-(3-bromo-1-methyl-1H-pyrazol-4-yl)-2-(1,4-diazepan-1-yl)pyrrolo[1,2-b]pyridazine-7-carboxamide trifluoroacetate] | 32 |
| N[C@@H]1[C@H](Nc2ccc3ccc(C(=O)Nc4ccccc4C(F)F)n3n2)CCCC1(F)F [Example 118, 2-{[(1R,2R)-2-amino-3,3-difluorocyclohexyl]amino}-N-[2-(difluoromethyl)phenyl]pyrrolo[1,2-b]pyridazine-7-carboxamide trifluoroacetate] | 7390 |
| N#Cc1ccccc1NC(=O)c1ccc2ccc(N3CCNCC4(CC4)C3)nn12 [Example 103, N-(2-cyanophenyl)-2-(5,8-diazaspiro[2.6]non-5-yl)pyrrolo[1,2-b]pyridazine-7-carboxamide trifluoroacetate] | 766 |
| O=C(Nc1ccccc1Cl)c1ccc2ccc(N3CCCNCC3)nn12 [Example 59, N-(2-chlorophenyl)-2-(1,4-diazepan-1-yl)pyrrolo[1,2-b]pyridazine-7-carboxamide trifluoroacetate] | 1200 |

Other lines, results leading:

| IC50 [nM] | Structure (SMILES) |
| --- | --- |
| 14 | Cn1cc(NC(=O)c2ccc3ccc(N4C[C@H]5CNC[C@@H]4C5)nn23)c(C(F)F)n1 (single isomer, unassigned) [Example 126, 2-[(1S,5R)- or (1R,5S)-3,6-diazabicyclo[3.2.1]oct-6-yl]-N-[3-(difluoromethyl)-1-methyl-1H-pyrazol-4-yl]pyrrolo[1,2-b]pyridazine-7-carboxamide] |
| 0.5 | Cn1cc(NC(=O)c2ccc3ccc(N4C5CCC4CNC5)nn23)c(C(F)F)n1 [Example 119, 2-(3,8-Diazabicyclo[3.2.1]octan-8-yl)-N-(3-(difluoromethyl)-1-methyl-1H-pyrazol-4-yl)pyrrolo[1,2-b]pyridazine-7-carboxamide] |
| 12 | Cn1cc(NC(=O)c2ccc3ccc(N4C[C@@H]5CN[C@@H](C5)C4)nn23)c(C(F)F)n1 (single isomer, unassigned) [Example 51, 2-[(1S,5S)- or (1R,5R)-3,6-diazabicyclo[3.2.1]oct-3-yl]-N-[3-(difluoromethyl)-1-methyl-1H-pyrazol-4-yl]pyrrolo[1,2-b]pyridazine-7-carboxamide] |
| 6 | N#Cc1ccccc1NC(=O)c1ccc2ccc(N[C@@H]3CCCC[C@@H]3N)nn12 [Example 106, 2-{[(1R,2S)-2-aminocyclohexyl]amino}-N-(2-cyanophenyl)pyrrolo [1,2-b]pyridazine-7-carboxamide trifluoroacetate] |
| 24 | Cn1cc(NC(=O)c2ccc3ccc(N4CC5CCC4CN5)nn23)c(Br)n1 (stereo not shown) [Example 27, N-(3-bromo-1-methyl-1H-pyrazol-4-yl)-2-(2,5-diazabicyclo[2.2.2]oct-2-yl)pyrrolo[1,2-b]pyridazine-7-carboxamide trifluoroacetate] |
| 0.3 | Cn1cc(NC(=O)c2ccc3ccc(N[C@H]4CCCCNC4)nn23)c(C(F)F)n1 (single isomer, unassigned) [Example 42, 2-[(3R)- or (3S)-azepan-3-ylamino]-N-[3-(difluoromethyl)-1-methyl-1H-pyrazol-4-yl]pyrrolo[1,2-b]pyridazine-7-carboxamide trifluoroacetate] |
| 15 | Cn1cc(NC(=O)c2ccc3ccc(N4C[C@H]5CC[C@@H]4CN5)nn23)c(Cl)n1 (single isomer, unassigned) [Example 34, N-(3-chloro-1-methyl-1H-pyrazol-4-yl)-2-[(1S,4S)- or (1R,4R)-2,5-diazabicyclo[2.2.2]oct-2-yl]pyrrolo[1,2-b]pyridazine-7-carboxamide trifluoroacetate] |
| 3 | Cn1cc(NC(=O)c2ccc3ccc(N4C[C@@H]5CC[C@H]4CN5)nn23)c(C(F)F)n1 (single isomer, unassigned) [Example 37, 2-[(1S,4S)- or (1R,4R)-2,5-diazabicyclo[2.2.2]oct-2-yl]-N-[3-(difluoromethyl)-1-methyl-1H-pyrazol-4-yl]pyrrolo[1,2-b]pyridazine-7-carboxamide trifluoroacetate] |
| 0.7 | Cn1cc(NC(=O)c2ccc3ccc(N[C@@H]4CCCC[C@@H]4N)nn23)c(C#N)n1 [Example 29, 2-{[(1R,2S)-2-aminocyclohexyl]amino}-N-(3-cyano-1-methyl-1H-pyrazol-4-yl)pyrrolo[1,2-b]pyridazine-7-carboxamide trifluoroacetate] |
